This assay deals with Human Pan T Cell (IL-2 release). The assay is described as follows: IL2 released by human pan T cell upon anti-CD3/anti-CD28 stimulation (ELISA). It is filed as cell-based. To be noted: human pan T cells; for maximal fold induction / EC (2-fold response) / EC50: Homo sapiens, T-cell; for maximal fold induction / EC (2-fold response): 48 h; for maximal fold induction: response of IL-2 over DMSO control, anti-CD3/anti-CD28, 48 hours, ELISA, read-out: IL-2 Max Fold Response; for EC50: IL-2 response, calculated with GraphPad Prism. The gist of the method:
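Primary human pan-T cells, negatively isolated from PBMC, plated at 100,000 cells/well and stimulated with immobilized anti-CD3 plus soluble anti-CD28 in presence of test compound at varying concentrations. After 2 days, secreted IL-2 in supernatant quantified by ELISA.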

Setting [1] is: concentration of compound that gives 200% IL-2 response (2 folds) over DMSO control.

These results are taken from US12612424B2, “HPK1 inhibitors and uses thereof” (Regor Pharmaceuticals, Inc., priority 2019, dated 2026).

The EC50 is the concentration that produces a half-maximal response.

As to `COc1cc2c(cc1Nc1ncc(Cl)c(-n3cc(C(N)=O)c4ccccc43)n1)CN(C)CC2` [Example 34], the maximal fold induction is less than 2.
As for `COc1cc2c(cc1Nc1ncc(Cl)c(N3CCc4cc(F)ccc43)n1)CN(C)CC2` [Example 20, N-(5-chloro-4-(5-fluoroindolin-1-yl)pyrimidin-2-yl)-6-methoxy-2-methyl-1,2,3,4-tetrahydroisoquinolin-7-amine], the maximal fold induction is more than 2 and the EC50 is 100 to 500 nM. Further, the EC (2-fold response) under setting [1] fell in the range of 0.1 to 0.5 µM.
Regarding `COc1cc2c(cc1Nc1ncc(Cl)c(N3CC(C(N)=O)c4ccccc43)n1)CN(C)CC2` (stereo not drawn) [Example 33, 1-(5-Chloro-2-((6-methoxy-2-methyl-1,2,3,4-tetrahydroisoquinolin-7-yl)amino)pyrimidin-4-yl)indoline-3-carboxamide], the maximal fold induction was less than 2.
For the compound `COc1cc2c(cc1Nc1ncc(Cl)c(N3CCc4ccccc43)n1)CNCC2` [Example 23, N-(5-chloro-4-(indolin-1-yl)pyrimidin-2-yl)-6-methoxy-1,2,3,4-tetrahydroisoquinolin-7-amine], the maximal fold induction is less than 2 and the EC50 is 100 to 500 nM.
Take `COc1cc2c(cc1Nc1ncc(Cl)c(N3CCc4ccc(F)cc43)n1)CN(C)CC2` [Example 21, N-(5-chloro-4-(6-fluoroindolin-1-yl)pyrimidin-2-yl)-6-methoxy-2-methyl-1,2,3,4-tetrahydroisoquinolin-7-amine]: the maximal fold induction is more than 2 and the EC50 was 100 to 500 nM. Moreover, the EC (2-fold response) under setting [1] was in the range of 0.1 to 0.5 µM.
On to `COc1cc2c(cc1Nc1ncc3ccn(-c4ccccn4)c3n1)CN(C)CC2` [Example 37, 6-Methoxy-2-methyl-N-(7-(pyridin-2-yl)-7H-pyrrolo[2,3-d]pyrimidin-2-yl)-1,2,3,4-tetrahydroisoquinolin-7-amine], for which the maximal fold induction is less than 2 and the EC50 was 100 to 500 nM.
Regarding `COc1cc2c(cc1Nc1ncc(Cl)c(-n3ncc4ccccc43)n1)CN(C)CC2` [Example 24, N-(5-Chloro-4-(1H-indazol-1-yl)pyrimidin-2-yl)-6-methoxy-2-methyl-1,2,3,4-tetrahydroisoquinolin-7-amine], the maximal fold induction was less than 2 and the EC50 is 500 to 1000 nM.
As to `COc1cc2c(cc1Nc1ncc(Cl)c(-n3cc(C(=O)O)c4ccccc43)n1)CN(C)CC2` [Example 35], the maximal fold induction is more than 2 and the EC50 was 500 to 1000 nM. In addition, the “EC2x (nM)” value under setting [1] is given as “+ (“+”, for greater than 1 μM)”.
Consider `COc1cc2c(cc1Nc1ncc(Cl)c(N3CCc4ccccc43)n1)CN(C(C)C)CC2` [Example 22, N-(5-chloro-4-(indolin-1-yl)pyrimidin-2-yl)-2-isopropyl-6-methoxy-1,2,3,4-tetrahydroisoquinolin-7-amine], for which the maximal fold induction was more than 2 and the EC50 was 500 to 1000 nM. Under setting [1], the EC (2-fold response) was 0.1 to 0.5 µM.
On to `COc1nc2c(cc1Nc1ncc(Cl)c(N3CCc4ncccc43)n1)CN(C)CC2` [Example 29, N-(5-Chloro-4-(2,3-dihydro-1H-pyrrolo[3,2-b]pyridin-1-yl)pyrimidin-2-yl)-2-methoxy-6-methyl-5,6,7,8-tetrahydro-1,6-naphthyridin-3-amine], for which the maximal fold induction is less than 2 and the EC50 was 500 to 1000 nM.
`COc1cc2c(cc1Nc1ncc3ccn(-c4ccccc4)c3n1)CN(C)CC2` [Example 36, 6-methoxy-2-methyl-N-(7-phenyl-7H-pyrrolo[2,3-d]pyrimidin-2-yl)-1,2,3,4-tetrahydroisoquinolin-7-amine]: the maximal fold induction is less than 2.
`COc1cc2c(cc1Nc1ncc(Cl)c(N3CC(C(=O)O)c4ccccc43)n1)CN(C)CC2` (stereo not drawn) [Example 32, 1-(5-Chloro-2-((6-methoxy-2-methyl-1,2,3,4-tetrahydroisoquinolin-7-yl)amino)pyrimidin-4-yl)indoline-3-carboxylic acid]: the maximal fold induction is more than 2 and the EC50 is 100 to 500 nM. Besides, the EC (2-fold response) under setting [1] is 0.1 to 0.5 µM.
For the compound `COc1cc2c(cc1Nc1ncc(Cl)c(N3CC(C)(C)c4ccccc43)n1)CN(C)CC2` [Example 25, N-(5-Chloro-4-(3,3-dimethylindolin-1-yl)pyrimidin-2-yl)-6-methoxy-2-methyl-1,2,3,4-tetrahydroisoquinolin-7-amine], the maximal fold induction is more than 2 and the EC50 is 500 to 1000 nM. The EC (2-fold response) under setting [1] is 0.1 to 0.5 µM.
As for `COc1cc2c(cc1Nc1ncc(Cl)c(-n3cc(P(C)(C)=O)c4ccccc43)n1)CN(C)CC2` [Example 1, (1-(5-Chloro-2-((6-methoxy-2-methyl-1,2,3,4-tetrahydroisoquinolin-7-yl)amino)pyrimidin-4-yl)-1H-indol-3-yl)dimethylphosphine oxide], the maximal fold induction was less than 2.
For `COc1nc2c(cc1Nc1ncc(Cl)c(N3CCc4ccccc43)n1)CN(C)CC2` [Example 19, N-(5-chloro-4-(indolin-1-yl)pyrimidin-2-yl)-2-methoxy-6-methyl-5,6,7,8-tetrahydro-1,6-naphthyridin-3-amine], the maximal fold induction is more than 2 and the EC50 is 100 to 500 nM. Further, under setting [1], the EC (2-fold response) was in the range of 0.1 to 0.5 µM.
